Columns and labels:
[1] = cited from earlier work
[2] = during controlled therapy; cited from earlier work
[3] = system: neonatal cardiac fibroblasts; experiment: qPCR of cardiac and pluripotency gene expression in neonatal cardiac fibroblasts (with or without miR combo transfection); assay type: cell-based, Mouse (C57BL/6)
Method: Mouse (C57BL/6) neonatal cardiac fibroblasts or tail tip fibroblasts were isolated from 2 day old mouse neonates according to known methods e.g., outlined in Jayawardena et al [Jayawardena T, Mirotsou M, Dzau V J. Direct reprogramming of cardiac fibroblasts to cardiomyocytes using microRNAs. Methods in molecular biology. 2014; 1150:263-272]. Cells were cultured in growth media containing DMEM (ATCC) supplemented with 15% v/v FBS and 1% v/v penicillin/streptomycin. Cells were used at passage 1 or passage 2.
Cells were seeded at 5000 cells/cm^2 in growth media. Twenty-four hours later growth media was replaced with chemically defined reprogramming media (Advanced DMEM/F12, 0.2% w/v BSA, 250 μM Ascorbic Acid, 1× Insulin-Transferrin-Selenium, 1× L-Glutamine, 1× Penicillin-Streptomycin). Fresh media was added every two days.
Fibroblasts were seeded into a 24 well-plate at 9,000 cells/well. […]
The GM comprises the following: DMEM (ATCC#30-2002), 15% v/v embryonic stem cell qualified fetal bovine serum, and 1× penicillin/streptomycin. […] Differentiation was assessed by qPCR, immunocytochemistry, and flow cytometry.

Compound | soluble to, in DMSO ([1]; DMSO) | soluble to, in ethanol [1] | other results
Cc1cccc(-c2nn(C(=S)Nc3ccccc3)cc2-c2ccnc3ccccc23)n1 [A83-01, 3-(6-Methyl-2-pyridinyl)-N-phenyl-4-(4-quinolinyl)-1H-pyrazole-1-c arbothioamide] | 100 mM | – | –
O=C(O)C=C(CCc1ccc(Cl)cc1)c1ccccc1 [PS48, 5-(4-Chloro-phenyl)-3-phenyl-pent-2-enoic acid] | – | – | solubility in DMSO ([1]; DMSO): soluble in DMSO
COC(=O)C1=C(C)NC(C)=C([N+](=O)[O-])[C@@H]1c1ccccc1C(F)(F)F [R(+)Bay K 8644, R-(+)-1,4-Dihydro-2,6-dimethyl-5-nitro-4-[2-(trifluoromethyl)phenyl]-3-pyridinecarboxylic acid methyl ester] | 100 mM | 100 mM | –
O=C(O)C(Cc1c[nH]c2ccccc12)N1C(=O)c2ccccc2C1=O (stereo not drawn) [RG108, 2-(1,3-Dioxo-1,3-dihydro-2H-isoindol-2-yl)-3-(1H-indol-3-yl)propionic acid] | 100 mM | 100 mM | –
CCCC(CCC)C(=O)O [Valproic acid, 2-propylpentanoic acid] | – | – | serum or plasma concentrations [2]: 20 to 100 mg/L
O=C1O[C@H]([C@@H](O)CO)C(O)=C1O [ascorbic acid] | – | – | effects of miR-combo upon cardiac gene expression ([3]; added to growth media): augmented; additive effect on cardiac gene expression at gene and protein level ([3]; increasing concentration): increased the additive effect

From patent publication US20200009197A1, “COMPOSITIONS AND METHODS FOR THE REPROGRAMMING OF CELLS INTO CARDIOMYOCYTES” (Duke University, priority 2014, published 2020)
